Measured values published in PubChem BioAssay (NCI).
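Protocol summary: plate cells (96-well), add compound at 5 concentrations, incubate 48 h, interpolate endpoints linearly. Abbreviation: GI50, concentration required for 50% inhibition of growth. TGI marks complete inhibition of growth.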

What was measured:
Assay in all cases: NCI anticancer screen, dose series, 48 h
KM20L2 colon = test system: KM20L2 colon
RXF-631 renal = test system: RXF-631 renal
MDA-N = test system: MDA-N
DU-145 prostate = test system: DU-145 prostate
XF 498 CNS = test system: XF 498 CNS
DLD-1 colon = test system: DLD-1 colon
SNB-78 CNS = test system: SNB-78 CNS
M19-MEL melanoma = test system: M19-MEL melanoma

| Compound | TGI (KM20L2 colon) | TGI (RXF-631 renal) | TGI (MDA-N) | TGI (DU-145 prostate) | TGI (XF 498 CNS) | TGI (DLD-1 colon) | TGI (SNB-78 CNS) | TGI (M19-MEL melanoma) | GI50 (MDA-N) |
| --- | --- | --- | --- | --- | --- | --- | --- | --- | --- |
| CCCC(O)[C@@]1(CC)CC(C)C(O)(C2(C)C[C@H](C)[C@@H](C(CC)C(=O)C(C)[C@@H](O)[C@H](C)C3OC(O)(C(CC)C(=O)O)[C@@H](C)C(O)C3CC)O2)O1 (some centres not stated) | 4.13 µM | 1.93 µM | 1.86 µM | 1.31 µM | 2.43 µM | 8.86 µM | 31.7 µM | 2.17 µM | – |
| C/C(=N\NC(=S)N1CCC1)c1ccccn1 | > 100 µM | > 64.6 µM | > 100 µM | > 100 µM | > 100 µM | > 100 µM | > 100 µM | > 100 µM | 0.476 µM |
